{"source": "paper PMC5506877", "about": "(Heliyon, 2017)", "key": {"[1]": {"experiment": "plasma protein binding by equilibrium dialysis", "format": "in vitro ADME, human", "conditions": "for recovery at 24 h: pooled human plasma dialysed against PBS, human plasma / PBS after dialysis, read-out: recovery in the plasma protein binding (equilibrium dialysis) experiment", "method": "Plasma was obtained by centrifugation (4 °C, 1600 g, 10 min, CF7D2, Hitachi Koki) of EDTA‐treated blood from three healthy male volunteers and was then pooled. […] Samples for M4 were mixed with deuterated M4 as an internal standard and acetonitrile/methanol (1:1, v/v). After centrifugation, the supernatant was injected into an LC/ESI-MS/MS system consisting of ACQUITY Ultra Performance LC (Waters) and API 4000 (AB Sciex) in positive-ion multiple-reaction monitoring (MRM) mode to measure M4 (Q1: m/z 457 and Q3: m/z 396) concentration. Chromatography was performed using ACQUITY UPLC BEH Phenyl (2.1 mm I.D. × 50 mm, 1.7 μm, Waters) at 60 °C; MP A: water/98% formic acid (1000/1, v/v), MP B: methanol/98% formic acid (1000/1, v/v), with a flow rate of 0.7 mL/min and a gradient program as follows: (time, % MP B): 0 min, 40%; 0.3 min, 40%; 1.9 min, 45%; 1.91 min, 90%; 2.20 min, 90%; 2.21 min, 40%; 2.70 min, stop. For the protein binding of M4, 1–5000 ng/mL in human plasma, and 0.5–2500 ng/mL in PBS were calibrated.\nThe recovery was calculated by the following equation.\nProtein binding was calculated by the following equation.\nProtein binding = (1−Cf/Cp) × 100 (%)\nWhere Cf and Cp represent the concentration in PBS and in plasma, respectively."}, "[2]": {"conditions": "cited from earlier work"}, "[3]": {"conditions": "at pH 3.575; cited from earlier work"}, "[4]": {"experiment": "human ADME study: metabolite profiling in plasma, urine and faeces after single oral [14C]alectinib", "format": "in vivo", "method": "Human plasma for protein binding was obtained from three healthy male volunteers. All participants provided written informed consent prior to study related procedures. The protocol of human ADME study was approved by the Independent Ethics Committee of the Stichting Beoordeling Ethiek Bio-Medisch Onderzoek (Assen, The Netherlands), and that of protein binding study was approved by Chugai IRB.\nPlasma samples were pooled at 4 h and 6 h (4 h + 6 h), and 8 h and 12 h (8 h +12 h) across the six subjects. An 18-mL aliquot of pooled plasma was extracted with the same volume of acetonitrile twice, and then the extract was lyophilized. The resulting residue was further extracted with 3 mL of acetonitrile/water (9:1, v/v) twice and lyophilized again. The resulting residue was reconstituted with 900 μL of methanol/water (7:3, v/v) to obtain the supernatant as an HPLC sample in which plasma was 20-fold concentrated.\nUrine samples were pooled at 0–24 h, and at 24–72 h across the six subjects. A 16-mL aliquot of pooled urine was concentrated 20-fold using the same process for plasma.\nFaecal samples were pooled at 0–48 h, 48–96 h, and 96–168 h across the six subjects. One to two weight equivalents of water was added to the faecal samples and the samples were homogenized and mixed with the same volume of acetonitrile. After following the same procedure as for plasma, the residue was reconstituted with methanol/water (7:3, v/v) or dimethyl sulfoxide (DMSO) and centrifuged, and the faecal sample was concentrated 5-fold for use in analysis.\nAlkaline Conditions: For metabolite profiling, the extracted samples from plasma, urine, and faeces were subjected to HPLC under alkaline conditions using XBridge™ Shield RP18, 3.5 μm, 4.6 × 150 mm (Waters), and a linear stepwise gradient with solvent A (consisting of water/30%trimethylamine at 100:0.1, v/v) and solvent B (consisting of acetonitrile/30%trimethylamine at 100:0.1, v/v), and a flow rate of 1 mL/min. Solvent B in the gradient started at 1% and then changed as follows: 30% (2 min), 60% (29 min), 98% (29.1 min), 98% (32 min), 1% (32.1 min), and 1% (40 min). The UV wavelength was set at 335 nm. […]\nPlasma and Urine: To profile metabolites, 150 μL of the same HPLC sample of plasma or 100 μL of the same HPLC sample of urine was injected 3 separate time, and the eluates collected at 15-second intervals were combined to be measured by a liquid scintillation counter (LSC) (Tri-Carb 3100TR, PerkinElmer, Inc.) at a low level count mode for 10 min.\nFaeces: A radiodetector (Radiomatic 625TR, PerkinElmer, Inc.) was used, and the area percentage of each radioactive peak on the radiochromatograms was calculated with analysis software (FLO-ONE Ver. 3.65, PerkinElmer, Inc.). […]"}, "ALK": {"target": "ALK (Homo sapiens, UniProt Q9UM73)", "sequence (Q9UM73 19-1620)": "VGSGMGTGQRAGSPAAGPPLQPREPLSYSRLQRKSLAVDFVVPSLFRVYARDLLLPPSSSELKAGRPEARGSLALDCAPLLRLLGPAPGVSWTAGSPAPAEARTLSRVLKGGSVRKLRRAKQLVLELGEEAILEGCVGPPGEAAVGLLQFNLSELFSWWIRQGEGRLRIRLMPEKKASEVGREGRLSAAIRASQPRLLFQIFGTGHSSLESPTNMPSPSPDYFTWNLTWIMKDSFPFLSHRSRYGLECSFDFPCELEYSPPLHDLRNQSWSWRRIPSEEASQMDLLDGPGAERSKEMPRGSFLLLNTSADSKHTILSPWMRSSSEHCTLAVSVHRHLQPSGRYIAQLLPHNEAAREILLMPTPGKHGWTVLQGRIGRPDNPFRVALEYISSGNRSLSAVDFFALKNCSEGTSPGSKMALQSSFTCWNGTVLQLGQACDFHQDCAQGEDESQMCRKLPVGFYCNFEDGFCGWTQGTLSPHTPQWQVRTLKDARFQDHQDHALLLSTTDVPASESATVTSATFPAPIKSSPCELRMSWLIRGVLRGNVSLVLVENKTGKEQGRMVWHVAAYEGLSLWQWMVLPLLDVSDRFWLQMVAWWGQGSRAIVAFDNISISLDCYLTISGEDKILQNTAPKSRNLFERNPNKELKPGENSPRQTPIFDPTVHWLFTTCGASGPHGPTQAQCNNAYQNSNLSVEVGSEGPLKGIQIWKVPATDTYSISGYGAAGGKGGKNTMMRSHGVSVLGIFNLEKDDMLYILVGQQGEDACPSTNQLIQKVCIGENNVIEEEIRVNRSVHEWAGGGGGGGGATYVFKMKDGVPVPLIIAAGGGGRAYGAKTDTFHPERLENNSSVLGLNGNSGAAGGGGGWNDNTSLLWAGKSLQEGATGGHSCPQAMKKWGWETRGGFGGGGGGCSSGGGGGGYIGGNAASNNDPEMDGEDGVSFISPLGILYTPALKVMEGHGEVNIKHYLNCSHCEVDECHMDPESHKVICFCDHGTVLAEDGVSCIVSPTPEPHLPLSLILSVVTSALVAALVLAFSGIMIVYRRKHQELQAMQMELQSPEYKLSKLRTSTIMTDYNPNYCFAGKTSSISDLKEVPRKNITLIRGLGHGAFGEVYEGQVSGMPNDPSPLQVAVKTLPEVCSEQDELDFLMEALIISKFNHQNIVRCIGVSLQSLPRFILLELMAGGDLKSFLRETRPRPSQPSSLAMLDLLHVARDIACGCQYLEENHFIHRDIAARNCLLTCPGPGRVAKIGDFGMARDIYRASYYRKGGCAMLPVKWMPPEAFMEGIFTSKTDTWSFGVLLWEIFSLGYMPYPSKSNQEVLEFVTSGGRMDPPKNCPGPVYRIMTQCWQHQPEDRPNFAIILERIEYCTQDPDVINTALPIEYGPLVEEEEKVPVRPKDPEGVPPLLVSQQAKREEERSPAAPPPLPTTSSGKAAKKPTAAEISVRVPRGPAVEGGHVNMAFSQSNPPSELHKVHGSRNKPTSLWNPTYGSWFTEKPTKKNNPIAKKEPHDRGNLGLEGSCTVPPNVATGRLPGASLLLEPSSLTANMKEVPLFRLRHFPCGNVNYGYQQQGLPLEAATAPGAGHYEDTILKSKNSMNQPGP", "experiment": "inhibitory activity against ALK, cell-free TR-FRET kinase assay", "format": "biochemical", "conditions": "90 min at 30 °C, geometric mean of triplicates", "method": "Solutions of test articles, substrate/ATP (2 μmol/L substrate peptide-0.2 mol/L HEPES buffer containing 60 μmol/L ATP, 20 mmol/L MgCl2, 0.2 mmol/L DTT, and 40 μmol/L Na3VO4) and the enzyme (final concentration of 200 ng/mL) were mixed in a clear-bottomed 384-well black plate and incubated for 90 min at 30 °C. After adding stop solution (100 mmol/L EDTA-0.1 mol/L HEPES buffer), TR-FRET reagent (2.5 nmol/L of LANCE® Eu-W1024-labeled anti-phosphotyrosine (PT66) and 6.25 μg/mL of Streptavidine SureLight® APC) was added and the time-resolved fluorescence was measured by EnVision HTS (Model 2104, PerkinElmer)."}, "[5]": {"test_system": "NCI-H2228 NSCLC cell line that harbours EML4-ALK fusion", "experiment": "cell growth inhibition, CellTiter-Glo, NCI-H2228 spheroid culture", "format": "cell-based", "conditions": "for IC50: Homo sapiens", "experimental": "Then test article solutions were added and the cell viability was measured after a 120-h incubation in a CO2 incubator. The luminescence was measured by EnVision HTS and the cell viability was calculated."}, "[6]": {"conditions": "male, human, plasma, human plasma, 37 °C 24 h dialysis, mean ± SD of triplicates"}, "[7]": {"conditions": "NCI-H2228 cells, 120-h incubation, geometric mean of triplicates"}, "[8]": {"conditions": "human, single oral 600 mg/67 μCi [14C]alectinib, pooled across n = 6, ND: Not detected"}}, "note": "Several values for one entry are separate records, joined by “and”; a condition that tells them apart may be missing. Equal entries are not always repeated.", "data": [{"smiles": "CCc1cc2c(cc1N1CCC(N3CCOCC3)CC1)C(C)(C)c1[nH]c3cc(C#N)ccc3c1C2=O", "note": "[Alectinib, 9-ethyl-6,6-dimethyl-8-(4-morpholino-1-piperidyl)-11-oxo-5H-benzo[b]carbazole-3-carbonitrile, reference compound]", "values": [{"measurement": "human plasma protein binding over the range of concentration investigated", "setting": "[1]; human plasma, all concentrations investigated", "result": "higher than 99%"}, {"measurement": "fraction unbound at 24 h, 0.1 μg/mL", "setting": "[1]; male, human, plasma, human plasma, 0.1 μg/mL, 37 °C 24 h dialysis, mean ± SD of triplicates", "result": 0.004}, {"measurement": "fraction unbound at 24 h, 1 μg/mL", "setting": "[1]; [6]", "result": 0.003}, {"measurement": "fraction unbound at 24 h, 10 μg/mL", "setting": "[1]; male, human, plasma, human plasma, 10 μg/mL, 37 °C 24 h dialysis, mean ± SD of triplicates", "result": 0.003}, {"measurement": "recovery at 24 h", "setting": "[1]; male", "result": "85 ± 1.7", "unit": "%"}, {"measurement": "Cmax in plasma", "setting": "[2]; human ADME study, 600 mg oral [14C]alectinib", "result": 175, "unit": "ng/mL"}, {"measurement": "recovery of radioactivity within excretion in faeces", "setting": "[2]; human, up to 168 h post-dose, % of dose administered", "result": 97.8, "unit": "%"}, {"measurement": "recovery of radioactivity within excretion in urine", "setting": "[2]; human, up to 168 h post-dose", "result": 0.5, "unit": "%"}, {"measurement": "logD", "setting": "[3]", "result": 1.96}]}, {"smiles": "CCc1cc2c(cc1N1CCC(NCCOCC(=O)O)CC1)C(C)(C)c1[nH]c3cc(C#N)ccc3c1C2=O", "note": "[M1a]", "values": [{"measurement": "ratio of M1a peak to M1b peak, radiochromatogram", "setting": "[4]; human faeces 48–96 h, fractionated M1, acidic HPLC conditions, radioactivity", "result": "1 to 9 and 1/9"}, {"measurement": "ratio of M1a to M1b, extracted ion chromatogram (XIC)", "setting": "[4]; human faeces 48–96 h, fractionated M1, acidic conditions, [M + H]+", "result": "1 to 3 and 1/3"}, {"measurement": "ratio of M1a to M1b in the XIC, plasma", "setting": "[4]; human plasma, LC-MS acidic conditions", "result": "1/8"}, {"measurement": "ratio of M1a to M1b in the XIC, urine", "setting": "[4]; human urine, LC-MS acidic conditions", "result": "1/10"}]}, {"smiles": "CCc1cc2c(cc1N1CCC(N(CCO)CC(=O)O)CC1)C(C)(C)c1[nH]c3cc(C#N)ccc3c1C2=O", "note": "[M1b]", "values": [{"measurement": "IC50", "setting": "ALK", "result": 0.0016, "unit": "µM"}, {"measurement": "IC50", "setting": "[5]; [7]", "result": 0.32, "unit": "µM"}, {"measurement": "IC50 Cell growth", "setting": "[5]; [7]", "result": "much weaker effect"}, {"measurement": "fold shift in IC50 from the ALK enzyme inhibition assay to the cell growth inhibition assay", "setting": "[5]; cell medium contained 10% FBS", "result": "~200", "unit": "fold"}]}, {"smiles": "CCc1cc2c(cc1N1CCC(NCCO)CC1)C(C)(C)c1[nH]c3cc(C#N)ccc3c1C2=O", "note": "[M4, 9-ethyl-8-[4-(2-hydroxyethylamino)-1-piperidyl]-6,6-dimethyl-11-oxo-5H-benzo[b]carbazole-3-carbonitrile]", "values": [{"measurement": "IC50", "setting": "ALK", "result": 0.0012, "unit": "µM"}, {"measurement": "IC50", "setting": "[5]; [7]", "result": 0.037, "unit": "µM"}, {"measurement": "fraction unbound at 24 h, 0.3 μg/mL", "setting": "[1]; male, human, plasma, human plasma, 0.3 μg/mL, 37 °C 24 h dialysis, mean ± SD of triplicates", "result": 0.009}, {"measurement": "fraction unbound at 24 h, 1 μg/mL", "setting": "[1]; [6]", "result": 0.005}, {"measurement": "fraction unbound at 24 h, 2 μg/mL", "setting": "[1]; male, human, plasma, human plasma, 2 μg/mL, 37 °C 24 h dialysis, mean ± SD of triplicates", "result": 0.005}, {"measurement": "fraction unbound at 24 h", "setting": "[1]; male, human, plasma, human plasma, all concentrations investigated, read-out: human plasma protein binding over the range of concentration investigated", "result": "< 0.01"}, {"measurement": "recovery at 24 h", "setting": "[1]; male", "result": "82.7 ± 2.5", "unit": "%"}, {"measurement": "AUC ratio for the percentage of total drug-related systemic exposure", "setting": "[2]; human plasma, LC/MS drug concentration vs total radioactivity", "result": 15, "unit": "%"}, {"measurement": "amount of metabolite in faecal samples, % of the dose administered", "setting": "[2]; human, faeces, single oral [14C]alectinib", "result": 5.8, "unit": "%"}, {"measurement": "Percentage of drug related compound in analytical sample, Faeces 0–48 h", "setting": "[2]; [8]", "result": 1.1, "unit": "%"}, {"measurement": "Percentage of drug related compound in analytical sample, Faeces 48–96 h", "setting": "[2]; [8]", "result": 11.0, "unit": "%"}, {"measurement": "Percentage of drug related compound in analytical sample, Faeces 96–168 h", "setting": "[2]; [8]", "result": 37.3, "unit": "%"}, {"measurement": "Percentage of drug related compound in analytical sample, Plasma 4 h + 6 h", "setting": "[2]; [8]", "result": 7.0, "unit": "%"}, {"measurement": "Percentage of drug related compound in analytical sample, Plasma 8 h + 12 h", "setting": "[2]; [8]", "result": 9.9, "unit": "%"}, {"measurement": "Percentage of drug related compound in analytical sample, Urine 0–24 h", "setting": "[2]; [8]", "result": 9.0, "unit": "%"}, {"measurement": "Percentage of drug related compound in analytical sample, Urine 24–72 h", "setting": "[2]; [8]", "result": 24.2, "unit": "%"}]}, {"smiles": "CCc1cc2c(cc1N1CCC(N)CC1)C(C)(C)c1[nH]c3cc(C#N)ccc3c1C2=O", "note": "[M6, 8-(4-amino-1-piperidyl)-9-ethyl-6,6-dimethyl-11-oxo-5H-benzo[b]carbazole-3-carbonitrile]", "values": [{"measurement": "Percentage of drug related compound in analytical sample, Faeces 96–168 h", "setting": "[2]; [8]", "result": 5.6, "unit": "%"}]}]}
